Eleven compounds from PubChem BioAssay (NCI) can be followed below.

The structures appear in SMILES notation.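 Briefly, cells in 96-well plates were exposed to five compound concentrations for 48 h, and endpoints were estimated by linear interpolation. GI50 = concentration required for 50% inhibition of growth. TGI: concentration producing complete growth inhibition.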 Where only a bound is given, the exact number is not on record here.

Holding throughout (test): growth of human tumour cells (NCI), 48 h
Assay [1] has as its system K-562 leukemia.
In assay [2] the test system is 786-0 renal.
The test system of assay [3] is UACC-62 melanoma.
The test system of assay [4] is IGROV1 ovarian.
Assay [5] relates to LOX IMVI melanoma.
For assay [6], the system named is NCI-H522 lung.
Assay [7] has as its system HCT-116 colon.
Assay [8] relates to RPMI-8226 leukemia.
Assay [9] concerns HOP-62 NSCLC.

On to `CC(=O)[O-].O=[N+]([O-])c1ccc([O-])c(C=NCCN=Cc2cc([N+](=O)[O-])ccc2[O-])c1.[Mn+3]`, for which the GI50 is more than 100 µM in [1]; more than 100 µM in assay [2]; more than 100 µM in [3]; 2.73 µM in assay [4]; 75.8 µM in assay [5]; 31.4 µM in assay [6]. Also, in [7], the GI50 was more than 100 µM. Further, the TGI in assay [1] is more than 100 µM; in assay [2] it was more than 100 µM; in [3], more than 100 µM; in assay [4], 19.9 µM; in assay [5], more than 100 µM; in assay [6] it was 93.3 µM. The compound also returned a TGI in assay [7] of more than 100 µM.

With `N=C(N)SCC(=O)O`, the TGI in assay [1], in [2], in assay [3], in assay [4], in assay [8] and in assay [5] was more than 100 µM each time. Further, the TGI in assay [6], in assay [7] and in assay [9] was more than 100 µM each time.

As to `COc1cc2c3c(c1OC)/C(=N/OS(=O)(=O)c1ccc(C)cc1)CC3N(S(=O)(=O)c1ccc(C)cc1)CC2` (stereo not drawn), the TGI in assay [1], in assay [2], in [3], in [4], in assay [8] and in assay [5] was more than 100 µM throughout. Besides, the TGI in assay [6], in assay [7] and in [9] was more than 100 µM throughout.

`CC[C@H](C)[C@H](NC(=O)N[C@@H](C)c1ccccc1)C(=O)N(C)[C@H](C[C@@H](OC(C)=O)c1nc(C(=O)N[C@@H](Cc2ccccc2)C[C@H](C)C(=O)OC)cs1)C(C)C`: the GI50 in assay [2] was 22.9 µM; in [3], 6.96 µM; in assay [4], 20.9 µM; in assay [8], 8.74 µM; in [5] it was 30.9 µM; in [6] it was 13 µM. Also, the GI50 was 21.8 µM in [7] and 33 µM in [9]. The TGI in [2] was 82.2 µM; in [3], more than 100 µM; in assay [4] it was more than 100 µM; in assay [8], more than 100 µM; in [5], more than 100 µM; in [6], 42.1 µM. Besides, the TGI was 68.5 µM in assay [7] and more than 100 µM in assay [9].

As to `Cc1cc(N(CCC#N)CCC#N)ccc1/C=C/C(=O)Nc1ccccc1Cl`, the TGI in assay [1], in assay [2], in assay [3], in [4], in assay [8] and in [5] was more than 100 µM each time. The TGI in assay [6], in [7] and in assay [9] was more than 100 µM in each case.

For `C=CCN(N=O)C(=O)ON1C(=O)CCC1=O`, the TGI in [1], in assay [2], in [3], in assay [4], in assay [8] and in [5] was more than 100 µM in each case. For the same compound, the TGI in assay [6], in assay [7] and in assay [9] was more than 100 µM each time.

Regarding `Cc1ccc(-c2cc(C(Cl)Cl)on2)cc1`, the GI50 in assay [2] was 60.3 µM; in [3] it was 66.8 µM; in [4] it was more than 100 µM; in assay [8] it was 33.8 µM; in assay [5], 41.1 µM; in assay [6] it was 48.5 µM. Moreover, the GI50 in [7] was 36.1 µM; in assay [9], 95.5 µM. Moreover, the TGI in assay [2], in assay [3], in assay [4], in [8], in assay [5] and in assay [6] was more than 100 µM in each case. Further, the TGI in assay [7] and in [9] was more than 100 µM each time.

As to `Cc1cc([C@H](C)Nc2nccc(N3C(=O)OC[C@@H]3[C@H](C)F)n2)ncc1-c1ccnc(C(F)(F)F)c1`, the GI50 in assay [1] is 37.1 µM; in assay [2], 42.4 µM; in assay [3] it was 21.7 µM; in [4], 25.9 µM; in assay [8], 16.7 µM; in assay [5], 36.5 µM. Besides, the GI50 was 31.7 µM in [6], 22.7 µM in assay [7] and 28.7 µM in assay [9]. Also, the TGI in [1], in assay [2], in [3], in assay [4], in assay [8] and in assay [5] was more than 100 µM in each case. Further, the TGI in assay [6], in assay [7] and in assay [9] was more than 100 µM throughout.

As for `C1=CC=C2NCCSCCNC3=CC=CC=CC3=NCCSCCN=C2C=C1`, the TGI in assay [1], in assay [2], in assay [3], in assay [4], in assay [8] and in [5] was more than 100 µM in each case. The TGI in [6], in assay [7] and in assay [9] was more than 100 µM each time.

Regarding `CC1(C)Oc2ccccc2N2O[C@@H]3C(=O)N(c4ccccc4)C(=O)[C@@H]3C21c1ccccc1` (stereo partly drawn), the TGI in [1] was more than 100 µM; in assay [2], 30.3 µM; in assay [3] it was 87.8 µM; in assay [4] it was more than 100 µM; in assay [8], more than 100 µM; in [6], 93.2 µM. For the same compound, the results for the TGI in assay [7] and in assay [9] were 59.7 µM and 31.5 µM, respectively.

Take `C#CCn1cc(C=C2C(=O)NC(=S)NC2=O)c2cc(Cl)ccc21`: the GI50 in assay [1] is 2.85 µM; in [2], 2.17 µM; in assay [3] it was 1.85 µM; in assay [4] it was 2.13 µM; in assay [5], 1.65 µM; in assay [6], 2.12 µM. For the same compound, the GI50 in [7] is 1.86 µM; in [9], 2.64 µM. Moreover, the TGI in [1] was more than 100 µM; in assay [2], 5.04 µM; in assay [3] it was 3.91 µM; in assay [4], 5.1 µM; in [5] it was 3.11 µM; in assay [6], 5.45 µM. The TGI in assay [7] came out at 3.6 µM; in [9], 8.98 µM.
